Experimental data published in article PMC8880671, “Facial Synthesis and Bioevaluation of Well-Defined OEGylated Betulinic Acid-Cyclodextrin Conjugates for Inhibition of Influenza Infection” (Molecules, 2022).
Where two headings read alike, the source gives them in different places.

What was measured:
[1] = tested on: influenza A/WSN/33 (H1N1) virus; experiment: microbe, parasite or virus in culture; assay type: cell-based; conditions: for IC50: read-out: IC50 (half maximal inhibitory concentration); for inhibition rate against influenza virus A/WSN/33 (H1N1): CPE-based screening at 20 μM
MDCK cells [2] = experiment: Cytotoxicity test, CellTiter-Glo luminescent cell viability assay; conditions: for CC50: read-out: CC50 (cytotoxicity concentration for 50% cell death), MDCK cells; for MDCK cell viability: 100 µM, 36 h, CellTiter-Glo
in vitro = conditions: dog
[3] = tested on: avian influenza KBNP-0028 (H9N2) virus; conditions: read-out: EC50 against avian influenza KBNP-0028 (H9N2) virus; cited from earlier work
MDCK cells [4] = conditions: read-out: CC50 (cytotoxicity concentration for 50% cell death); cited from earlier work
A/PR/8/34 virus = tested on: A/PR/8/34 virus; parameters: method as in PMID 26157551; conditions: 10 μM; cited from earlier work
influenza virus [5] = tested on: influenza virus; parameters: method as in doi:10.1134/S1068162018050059; conditions: read-out: EC50, anti-influenza activity; cited from earlier work
influenza virus [6] = tested on: influenza virus; parameters: method as in PMID 28792469; conditions: 50 µg/mL; cited from earlier work
[7] = Cytotoxicity test, CellTiter-Glo luminescent cell viability assay; conditions: dog, MDCK cells

With “Hexakis 6-Deoxy-6-[4-N-[(2-(2-(2-Propyn-1-yloxy)ethoxy)ethyl)-3β-hydroxy-lup-20(29)-en-28-oyl]-aminomethyl-1H-1,2,3-triazol-1-yl]-α-CD [Compound 75]” the IC50 ([1]; A/WSN/33 virus in MDCK cells, MOI 0.2, 36 h) was 15.6 ± 3.32 µM and the “inhibition rate against influenza virus A/WSN/33 (H1N1)” value (shortened to “inhibition rate”) [1] was “over 50%”.

For “Hexakis 6-Deoxy-6-[4-N-[(2-(2-(2-Propyn-1-yloxy)ethoxy)ethyl)-3β-hydroxy-lup-20(29)-en-28-oyl]-aminomethyl-1H-1,2,3-triazol-1-yl]-2,3-di-O-acetyl-α-CD [Compound 57]”, the “inhibition rate” value [1] was “over 50%”.

For “Hexakis 6-Deoxy-6-[4-N-(3β-Hydroxy-lup-20(29)-en-28-oyl)-aminomethyl-1H-1,2,3-triazol-1-yl]-α-CD [Compound 69]”, the IC50 [1] was 9.82 ± 1.74 µM and the CC50 (MDCK cells [2]) was over 100 µM.

With CC(=O)N[C@H]1[C@H]([C@H](O)[C@H](O)CO)OC(C(=O)O)=C[C@@H]1N=C(N)N [Zanamivir, reference compound] the CC50 (in vitro) was over 100 µM, the “SI (Selectivity Index, ratio of CC50 to IC50)” value [1] was over 79.4 and the IC50 ([1]; Influenza A virus, MDCK, 36 h) was 1.26 ± 0.36 µM.

In the case of C=C(C)[C@@H]1CC[C@]2(C=O)CC[C@]3(C)[C@H](CC[C@@H]4[C@@]5(C)CC[C@H](O)C(C)(C)[C@@H]5CC[C@]43C)[C@@H]12 [Betulinic aldehyde], the EC50 [3] is given as 28.4 µM.

“Octakis 6-Deoxy-6-[4-N-(3β-Hydroxy-lup-20(29)-en-28-oyl)-aminomethyl-1H-1,2,3-triazol-1-yl]-γ-CD [Compound 71]” showed an IC50 [1] of 7.59 ± 1.57 µM and a CC50 (MDCK cells [2]) of over 100 µM.

For “Octakis 6-Deoxy-6-[4-N-[(3,6,9,12-Tetraoxapentadec-14-yn-1-yl)-3β-hydroxy-lup-20(29)-en-28-oyl]-aminomethyl-1H-1,2,3-triazol-1-yl]-γ-CD [Compound 80]”, the MDCK cell viability (MDCK cells [2]) was 64%.

For “Heptakis 6-Deoxy-6-[4-N-[(2-(2-(2-Propyn-1-yloxy)ethoxy)ethyl)-3β-hydroxy-lup-20(29)-en-28-Oyl]-aminomethyl-1H-1,2,3-triazol-1-Yl]-2,3-di-O-acetyl-β-CD [Compound 58]”, the MDCK cell viability (MDCK cells [2]) was 68%.

In the case of “Heptakis 6-Deoxy-6-[4-N-(3β-Hydroxy-lup-20(29)-en-28-oyl)-aminomethyl-1H-1,2,3-triazol-1-yl]-β-CD [Compound 70]”, the IC50 [1] is reported as 7.48 ± 1.93 µM and the CC50 (MDCK cells [2]) is reported as over 100 µM.

In the case of C=C(C)[C@@H]1CC[C@]2(C(=O)O)CC[C@]3(C)[C@H](CC[C@@H]4[C@@]5(C)CC[C@H](O)C(C)(C)[C@@H]5CC[C@]43C)[C@@H]12 [BA, Betulinic acid], the CC50 (MDCK cells [4]) is given as 31.9 µM, the “anti-influenza activity against A/PR/8/34 virus” value (A/PR/8/34 virus) is given as ~ 30% and the EC50 (influenza virus [5]) is given as over 219 µM. For the same compound, the “anti-influenza activity (inhibition)” value (influenza virus [6]) was 27.6% and the viability at 36 h, 100 µM [7] was 8.5%.

Work on “Heptakis 6-Deoxy-6-[4-N-[(3,6,9,12,15,18-Hexaoxaheneicos-20-yn-1-yl)-3β-hydroxy-lup-20(29)-en-28-oyl]-aminomethyl-1H-1,2,3-triazol-1-yl]-β-CD [Compound 82]” yielded an MDCK cell viability (MDCK cells [2]) of 67%.

With “Hexakis 6-Deoxy-6-[4-N-[(3,6,9,12-Tetraoxapentadec-14-yn-1-yl)-3β-hydroxy-lup-20(29)-en-28-oyl]-aminomethyl-1H-1,2,3-triazol-1-yl]-α-CD [Compound 78]” the “inhibition rate” value [1] was “over 50%”.
